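Exposure lasted 48 hours, with cells grown in 96-well plates and compounds tested at five concentrations. At the GI50, growth is halved. At the TGI there is no net growth.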
Key:
Assay in all cases: NCI tumour cell line growth inhibition, 48 h
HCT-15 colon = test system: HCT-15 colon
U251 CNS = test system: U251 CNS
ACHN renal = test system: ACHN renal
M14 melanoma = test system: M14 melanoma
LOX IMVI melanoma = test system: LOX IMVI melanoma
MCF7 breast = test system: MCF7 breast
OVCAR-3 ovarian = test system: OVCAR-3 ovarian
MOLT-4 leukemia = test system: MOLT-4 leukemia
HCC-2998 colon = test system: HCC-2998 colon
RPMI-8226 leukemia = test system: RPMI-8226 leukemia
SW-620 colon = test system: SW-620 colon
A498 renal = test system: A498 renal
NCI-H23 lung = test system: NCI-H23 lung
HT29 colon = test system: HT29 colon
SK-MEL-5 melanoma = test system: SK-MEL-5 melanoma
MDA-MB-231 breast = test system: MDA-MB-231 breast
BT-549 breast = test system: BT-549 breast
K-562 leukemia = test system: K-562 leukemia
SK-MEL-28 melanoma = test system: SK-MEL-28 melanoma
HL-60(TB) leukemia = test system: HL-60(TB) leukemia
HS 578T breast = test system: HS 578T breast
TK-10 renal = test system: TK-10 renal
RXF 393 renal = test system: RXF 393 renal
HCT-116 colon = test system: HCT-116 colon
SK-MEL-2 melanoma = test system: SK-MEL-2 melanoma
A549 NSCLC = test system: A549 NSCLC
SK-OV-3 ovarian = test system: SK-OV-3 ovarian
786-0 renal = test system: 786-0 renal
NCI-H522 lung = test system: NCI-H522 lung
CAKI-1 renal = test system: CAKI-1 renal
OVCAR-4 ovarian = test system: OVCAR-4 ovarian
NCI-H460 lung = test system: NCI-H460 lung
UO-31 renal = test system: UO-31 renal
PC-3 prostate = test system: PC-3 prostate
OVCAR-8 ovarian = test system: OVCAR-8 ovarian
NCI-H226 lung = test system: NCI-H226 lung
UACC-62 melanoma = test system: UACC-62 melanoma
SF-268 CNS = test system: SF-268 CNS
COLO 205 colon = test system: COLO 205 colon
SF-295 CNS = test system: SF-295 CNS
OVCAR-5 ovarian = test system: OVCAR-5 ovarian
EKVX NSCLC = test system: EKVX NSCLC
IGROV1 ovarian = test system: IGROV1 ovarian
CCRF-CEM leukemia = test system: CCRF-CEM leukemia
MALME-3M melanoma = test system: MALME-3M melanoma
NCI/ADR-RES ovarian = test system: NCI/ADR-RES ovarian
HOP-92 NSCLC = test system: HOP-92 NSCLC
SF-539 CNS = test system: SF-539 CNS
SNB-19 CNS = test system: SNB-19 CNS
SN12C renal = test system: SN12C renal
SR leukemia = test system: SR leukemia
UACC-257 melanoma = test system: UACC-257 melanoma
HOP-62 NSCLC = test system: HOP-62 NSCLC
DU-145 prostate = test system: DU-145 prostate
SNB-75 CNS = test system: SNB-75 CNS
MDA-MB-435 = test system: MDA-MB-435

C=C1C(=O)O[C@@H]2/C=C(/C)C3=CC(=O)[C@@](C)(C[C@H](OC(=O)/C(C)=C\C)[C@@H]12)O3
GI50 (HCT-15 colon): 661 nM
TGI (HCT-15 colon): 1770 nM
GI50 (U251 CNS): 3370 nM
TGI (U251 CNS): 8690 nM
GI50 (ACHN renal): 658 nM
TGI (ACHN renal): 1430 nM
GI50 (M14 melanoma): 1300 nM
TGI (M14 melanoma): 7040 nM
GI50 (LOX IMVI melanoma): 997 nM
TGI (LOX IMVI melanoma): 4120 nM
GI50 (MCF7 breast): 1120 nM
TGI (MCF7 breast): 5550 nM
TGI (OVCAR-3 ovarian): 2840 nM
GI50 (MOLT-4 leukemia): 857 nM
TGI (MOLT-4 leukemia): 2880 nM
GI50 (HCC-2998 colon): 4640 nM
TGI (HCC-2998 colon): 9070 nM
GI50 (RPMI-8226 leukemia): 867 nM
TGI (RPMI-8226 leukemia): 2370 nM
GI50 (SW-620 colon): 946 nM
TGI (SW-620 colon): 2610 nM
TGI (A498 renal): 13300 nM
GI50 (NCI-H23 lung): 1520 nM
TGI (NCI-H23 lung): 6540 nM
GI50 (HT29 colon): 1010 nM
TGI (HT29 colon): 3710 nM
GI50 (SK-MEL-5 melanoma): 2410 nM
TGI (SK-MEL-5 melanoma): 9160 nM
GI50 (MDA-MB-231 breast): 1700 nM
TGI (MDA-MB-231 breast): 6990 nM
TGI (BT-549 breast): 5340 nM
GI50 (K-562 leukemia): 955 nM
TGI (K-562 leukemia): 4790 nM
GI50 (SK-MEL-28 melanoma): 1090 nM
TGI (SK-MEL-28 melanoma): 4600 nM
GI50 (HL-60(TB) leukemia): 911 nM
TGI (HL-60(TB) leukemia): 2400 nM
GI50 (HS 578T breast): 8010 nM
TGI (HS 578T breast): > 32500 nM
TGI (TK-10 renal): 1990 nM
GI50 (RXF 393 renal): 648 nM
TGI (RXF 393 renal): 1580 nM
GI50 (HCT-116 colon): 631 nM
TGI (HCT-116 colon): 1490 nM
GI50 (SK-MEL-2 melanoma): 1300 nM
TGI (SK-MEL-2 melanoma): 7150 nM
GI50 (A549 NSCLC): 6000 nM
TGI (A549 NSCLC): 19800 nM
GI50 (SK-OV-3 ovarian): 10500 nM
TGI (SK-OV-3 ovarian): > 32500 nM
GI50 (786-0 renal): 1130 nM
TGI (786-0 renal): 4130 nM
GI50 (NCI-H522 lung): 545 nM
TGI (NCI-H522 lung): 1210 nM
GI50 (CAKI-1 renal): 1100 nM
TGI (CAKI-1 renal): 3800 nM
GI50 (OVCAR-4 ovarian): 1800 nM
TGI (OVCAR-4 ovarian): 6230 nM
GI50 (NCI-H460 lung): 7040 nM
TGI (NCI-H460 lung): > 32500 nM
GI50 (UO-31 renal): 896 nM
TGI (UO-31 renal): 4000 nM
GI50 (PC-3 prostate): 4100 nM
TGI (PC-3 prostate): 12100 nM
GI50 (OVCAR-8 ovarian): 1000 nM
TGI (OVCAR-8 ovarian): 5890 nM
GI50 (NCI-H226 lung): 1160 nM
TGI (NCI-H226 lung): 4330 nM
GI50 (UACC-62 melanoma): 748 nM
TGI (UACC-62 melanoma): 2400 nM
GI50 (SF-268 CNS): 5000 nM
TGI (SF-268 CNS): 15400 nM
GI50 (COLO 205 colon): 676 nM
TGI (COLO 205 colon): 1570 nM
GI50 (SF-295 CNS): 5520 nM
TGI (SF-295 CNS): 13400 nM
GI50 (OVCAR-5 ovarian): 1670 nM
TGI (OVCAR-5 ovarian): 7810 nM
TGI (EKVX NSCLC): 8360 nM
GI50 (IGROV1 ovarian): 3940 nM
TGI (IGROV1 ovarian): 9170 nM
GI50 (CCRF-CEM leukemia): 778 nM
TGI (CCRF-CEM leukemia): 2920 nM
TGI (MALME-3M melanoma): 5330 nM
GI50 (NCI/ADR-RES ovarian): 1060 nM
TGI (NCI/ADR-RES ovarian): > 32500 nM
GI50 (HOP-92 NSCLC): 1170 nM
TGI (HOP-92 NSCLC): 5150 nM
GI50 (SF-539 CNS): 1440 nM
TGI (SF-539 CNS): 6360 nM
TGI (SNB-19 CNS): > 32500 nM
TGI (SN12C renal): 12500 nM
GI50 (SR leukemia): 594 nM
TGI (SR leukemia): 3740 nM
GI50 (UACC-257 melanoma): 685 nM
TGI (UACC-257 melanoma): 4440 nM
GI50 (HOP-62 NSCLC): 6770 nM
TGI (HOP-62 NSCLC): 19200 nM
GI50 (DU-145 prostate): 1500 nM
TGI (DU-145 prostate): 5580 nM
GI50 (SNB-75 CNS): 2370 nM
TGI (SNB-75 CNS): 27100 nM
GI50 (MDA-MB-435): 1500 nM
TGI (MDA-MB-435): 10200 nM
